The data set can be described thus: In vivo pharmacokinetic study, plasma and liver, single oral dose in mice. The conditions noted are these: male, ICR, mouse, plasma, 80 mg/kg.

One may read the AUC(0-inf) as the area under the concentration-time curve extrapolated to infinity. Read a low AUC(0-inf) as less exposure. A word on the Cmax: it is the highest concentration seen after dosing.

For the compound `O=c1c2ccc(Oc3ccc(OC(F)(F)F)cc3)cc2[nH]c2cc(Cl)cc(F)c12` [Compound 26, 3-Chloro-1-fluoro-6-(4-(trifluoromethoxy)phenoxy)acridin-9(10H)-one], the AUC(0-inf) stood at 508 ng·h/mL and the Cmax turned out to be 17.2 ng/mL.

(Values after PMC7354843 (Journal of medicinal chemistry, 2020).)
